Reference: US8822503B2, “2-pyridone compounds” (Taisho Pharmaceutical Co., Ltd, priority 2009, dated 2014)

Each molecule was assayed against T1, human liver GK (Homo sapiens, UniProt P35557) (assay: GK activation test). Settings: test compound concentration needed to activate 50% of maximum activation ability; 4 mM 14C-labeled glucose, 2 mM ATP, room temperature, 20 minutes.
T1 construct: GST (glutathione S-transferase) (N); made in house; host or cells: E. coli
T1 sequence (P35557 1-466 isoform P35557-2): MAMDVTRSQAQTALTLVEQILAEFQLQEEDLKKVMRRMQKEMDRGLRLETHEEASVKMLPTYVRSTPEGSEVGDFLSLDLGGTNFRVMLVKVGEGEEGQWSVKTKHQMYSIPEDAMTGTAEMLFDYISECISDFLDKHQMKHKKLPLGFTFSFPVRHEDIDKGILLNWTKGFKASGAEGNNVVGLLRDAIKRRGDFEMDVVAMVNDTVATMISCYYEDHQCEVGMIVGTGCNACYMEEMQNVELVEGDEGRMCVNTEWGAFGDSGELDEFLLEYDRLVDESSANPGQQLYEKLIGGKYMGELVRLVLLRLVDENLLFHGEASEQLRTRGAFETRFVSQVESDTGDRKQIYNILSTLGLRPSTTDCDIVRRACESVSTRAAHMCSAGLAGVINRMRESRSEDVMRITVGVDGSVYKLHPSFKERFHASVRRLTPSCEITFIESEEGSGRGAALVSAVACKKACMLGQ
Type: biochemical
In short: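 GST-tagged human liver GK from E. coli (0.24 μg/well) with 4 mM 14C-glucose, 2 mM ATP in Hepes-KOH pH 7.1, KCl, MgCl2, DTT, 1% DMSO, 20 min room temperature. Labeled glucose 6-phosphate captured on anion resin, eluted and counted. EC50 = concentration giving half of maximal activation.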

EC50 | Structure (SMILES)
0.01 to 0.5 µM | O=c1[nH]c(/C(=C/[C@H]2CC[C@H](O)CC2)c2ccc(SC3CC3)cc2)ccc1C(F)(F)F [Example 1-90, 6-[(E)-1-[4-(Cyclopropylsulfanyl)phenyl]-2-(trans-4-hydroxycyclohexyl)ethenyl]-3-(trifluoromethyl)pyridin-2(1H)-one]
0.5 to 3 µM | O=c1[nH]c(/C(=C/[C@H]2CC[C@H](O)CC2)c2ccc(S(=O)(=O)C3CC3)cc2)ccc1C(F)(F)F [Example 1-91, 6-[(E)-1-[4-(Cyclopropylsulfonyl)phenyl]-2-(trans-4-hydroxycyclohexyl)ethenyl]-3-(trifluoromethyl)pyridin-2(1H)-one]
3 to 10 µM | CSc1ccc(/C(=C\CCO)c2ccc(C3CC3)c(=O)[nH]2)cc1 [Example 1-92, 3-Cyclopropyl-6-{(1E)-4-hydroxy-1-[4-(methylsulfanyl)phenyl]but-1-en-1-yl}pyridin-2(1H)-one]
3 to 10 µM | CS(=O)(=O)c1ccc(/C(=C\CCO)c2ccc(C3CC3)c(=O)[nH]2)cc1 [Example 1-93, 3-Cyclopropyl-6-{(1E)-4-hydroxy-1-[4-(methylsulfonyl)phenyl]but-1-en-1-yl}pyridin-2(1H)-one]
3 to 10 µM | CSc1ccc(/C(=C\CCNC(C)=O)c2ccc(C3CC3)c(=O)[nH]2)cc1 [Example 1-94, N-{(3E)-4-(5-Cyclopropyl-6-oxo-1,6-dihydropyridin-2-yl)-4-[4-(methylsulfanyl)phenyl]but-3-en-1-yl}acetamide]
3 to 10 µM | CC(=O)NCC/C=C(\c1ccc(S(C)(=O)=O)cc1)c1ccc(C2CC2)c(=O)[nH]1 [Example 1-95, N-{(3E)-4-(5-Cyclopropyl-6-oxo-1,6-dihydropyridin-2-yl)-4-[4-(methylsulfonyl)phenyl]but-3-en-1-yl}acetamide]
0.5 to 3 µM | CSc1ccc(/C(=C\CCCO)c2ccc(C3CC3)c(=O)[nH]2)cc1 [Example 1-96, 3-Cyclopropyl-6-{(1E)-5-hydroxy-1-[4-(methylsulfanyl)phenyl]pent-1-en-1-yl}pyridin-2(1H)-one]
0.5 to 3 µM | CS(=O)(=O)c1ccc(/C(=C\CCCO)c2ccc(C3CC3)c(=O)[nH]2)cc1 [Example 1-97, 3-Cyclopropyl-6-{(1E)-5-hydroxy-1-[4-(methylsulfonyl)phenyl]pent-1-en-1-yl}pyridin-2(1H)-one]
3 to 10 µM | O=c1[nH]c(/C(=C/CCCO)c2ccc(SC3CC3)cc2)ccc1C(F)(F)F [Example 1-98, 6-{(1E)-1-[4-(Cyclopropylsulfanyl)phenyl]-5-hydroxypent-1-en-1-yl}-3-(trifluoromethyl)pyridin-2(1H)-one]
0.5 to 3 µM | O=c1[nH]c(/C(=C/CCCO)c2ccc(S(=O)(=O)C3CC3)cc2)ccc1C(F)(F)F [Example 1-99, 6-{(1E)-1-[4-(Cyclopropylsulfonyl)phenyl]-5-hydroxypent-1-en-1-yl}-3-(trifluoromethyl)pyridin-2(1H)-one]
3 to 10 µM | Cc1ccc(/C(=C/C2(CO)CC2)c2ccc(S(=O)(=O)C3CC3)cc2)[nH]c1=O [Example 1-100, 6-{(E)-1-[4-(Cyclopropylsulfonyl)phenyl]-2-[1-(hydroxymethyl)cyclopropyl]ethenyl}-3-methylpyridin-2(1H)-one]
3 to 10 µM | C[C@@H](/C=C(\c1ccc(S(=O)(=O)C2CC2)cc1)c1ccc(C(F)(F)F)c(=O)[nH]1)CO [Example 1-101, 6-{(1E,3S)-1-[4-(Cyclopropylsulfonyl)phenyl]-4-hydroxy-3-methylbut-1-en-1-yl}-3-(trifluoromethyl)pyridin-2(1H)-one]
0.5 to 3 µM | C[C@H](/C=C(\c1ccc(S(=O)(=O)C2CC2)cc1)c1ccc(C(F)(F)F)c(=O)[nH]1)CO [Example 1-102, 6-{(1E,3R)-1-[4-(Cyclopropylsulfonyl)phenyl]-4-hydroxy-3-methylbut-1-en-1-yl}-3-(trifluoromethyl)pyridin-2(1H)-one]
0.01 to 0.5 µM | O=c1[nH]c(/C(=C/C2CCCC2)c2ccc(SC3CC3)cc2)ccc1Cl [Example 1-103, 3-Chloro-6-{(E)-2-cyclopentyl-1-[4-(cyclopropylsulfanyl)phenyl]ethenyl}pyridin-2(1H)-one]
0.01 to 0.5 µM | O=c1[nH]c(/C(=C/C2CCCC2)c2ccc(S(=O)(=O)C3CC3)cc2)ccc1Cl [Example 1-104, 3-Chloro-6-{(E)-2-cyclopentyl-1-[4-(cyclopropylsulfonyl)phenyl]ethenyl}pyridin-2(1H)-one]
0.5 to 3 µM | CC(=O)Nc1ccc(/C(=C\C2CCCC2)c2ccc(Cl)c(=O)[nH]2)cc1 [Example 1-105, N-{4-[(E)-1-(5-Chloro-6-oxo-1,6-dihydropyridin-2-yl)-2-cyclopentylethenyl]phenyl}acetamide]
0.5 to 3 µM | NC(=O)Nc1ccc(/C(=C\C2CCCC2)c2ccc(Cl)c(=O)[nH]2)cc1 [Example 1-106, 1-{4-[(E)-1-(5-Chloro-6-oxo-1,6-dihydropyridin-2-yl)-2-cyclopentylethenyl]phenyl}urea]
0.01 to 0.5 µM | CC(C)c1ccc(/C(=C/[C@H]2CCC(=O)C2)c2ccc(S(C)(=O)=O)cc2)[nH]c1=O [Example 1-107, 6-{(E)-1-[4-(Methylsulfonyl)phenyl]-2-[(1S)-3-oxocyclopentyl]ethenyl}-3-(propan-2-yl)pyridin-2(1H)-one]
0.01 to 0.5 µM | CS(=O)(=O)c1ccc(/C(=C\[C@H]2CCC(=O)C2)c2ccc(C3CC3)c(=O)[nH]2)cc1 [Example 1-108, 3-Cyclopropyl-6-{(E)-1-[4-(methylsulfonyl)phenyl]-2-[(1S)-3-oxocyclopentyl]ethenyl}pyridin-2(1H)-one]
0.5 to 3 µM | CC(C)c1ccc(/C(=C\C2CCOCC2)c2ccc(Cl)c(=O)[nH]2)cc1 [Example 1-109, 3-Chloro-6-[(E)-1-[4-(propan-2-yl)phenyl]-2-(tetrahydro-2H-pyran-4-yl)ethenyl]pyridin-2(1H)-one]
0.5 to 3 µM | O=c1[nH]c(/C(=C/C2CCOCC2)c2ccc(S(=O)(=O)C3CC3)cc2)ccc1Cl [Example 1-110, 3-Chloro-6-[(E)-1-[4-(cyclopropylsulfonyl)phenyl]-2-(tetrahydro-2H-pyran-4-yl)ethenyl]pyridin-2(1H)-one]
3 to 10 µM | O=c1[nH]c(/C(=C/C2CCOCC2)c2ccc(N3CCOCC3)cc2)ccc1Cl [Example 1-111, 3-Chloro-6-[(E)-1-[4-(morpholin-4-yl)phenyl]-2-(tetrahydro-2H-pyran-4-yl)ethenyl]pyridin-2(1H)-one]
3 to 10 µM | CC(=O)c1ccc(/C(=C\C2CCOCC2)c2ccc(Cl)c(=O)[nH]2)cc1 [Example 1-112, 6-[(E)-1-(4-Acetylphenyl)-2-(tetrahydro-2H-pyran-4-yl)ethenyl]-3-chloropyridin-2(1H)-one]
3 to 10 µM | CS(=O)(=O)c1ccc(C/C(=C\C2CCOCC2)c2ccc(Cl)c(=O)[nH]2)cc1 [Example 1-113, 3-Chloro-6-[(1E)-3-[4-(methylsulfonyl)phenyl]-1-(tetrahydro-2H-pyran-4-yl)prop-1-en-2-yl]pyridin-2(1H)-one]
0.5 to 3 µM | CSc1ccc(C(CC2CCCC2)c2ccc(C)c(=O)[nH]2)cc1 (centres unmarked) [Example 2-1, 6-{2-Cyclopentyl-1-[4-(methylsulfanyl)phenyl]ethyl}-3-methylpyridin-2(1H)-one]
0.5 to 3 µM | Cc1ccc(C(CC2CCCC2)c2ccc(S(C)(=O)=O)cc2)[nH]c1=O (centres unmarked) [Example 2-2, 6-{2-Cyclopentyl-1-[4-(methylsulfonyl)phenyl]ethyl}-3-methylpyridin-2(1H)-one]
